Columns and labels:
[1] = molecular target: 5-hydroxytryptamine receptor 2A (Rattus norvegicus, UniProt P14842)
D(2) dopamine receptor = D(2) dopamine receptor (Rattus norvegicus, UniProt P61169)
[2] = molecular target: 5-hydroxytryptamine 1D receptor (Bos taurus, UniProt Q8MI13)
[3] = molecular target: 5-hydroxytryptamine receptor 1B (Rattus norvegicus, UniProt P28564)
[4] = molecular target: T1, Alpha-1A adrenergic receptor (Rattus norvegicus, UniProt P43140)
T1 sequence (P43140 whole entry): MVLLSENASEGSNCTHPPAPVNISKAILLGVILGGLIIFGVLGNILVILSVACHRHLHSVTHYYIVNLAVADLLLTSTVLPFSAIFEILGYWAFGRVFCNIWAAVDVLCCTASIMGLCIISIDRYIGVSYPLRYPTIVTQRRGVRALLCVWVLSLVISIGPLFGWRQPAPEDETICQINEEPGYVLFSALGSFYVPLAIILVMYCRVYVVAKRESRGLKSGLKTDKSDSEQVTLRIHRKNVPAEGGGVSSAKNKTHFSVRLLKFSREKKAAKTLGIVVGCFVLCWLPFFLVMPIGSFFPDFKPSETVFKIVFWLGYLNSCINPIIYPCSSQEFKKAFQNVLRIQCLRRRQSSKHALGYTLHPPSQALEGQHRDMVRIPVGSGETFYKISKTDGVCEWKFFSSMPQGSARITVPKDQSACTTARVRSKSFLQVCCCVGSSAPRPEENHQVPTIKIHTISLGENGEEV

[5] = molecular target: Sodium channel protein type 10 subunit alpha (Rattus norvegicus, UniProt Q62968)
[6] = molecular target: T2, 5-hydroxytryptamine receptor 2C (Sus scrofa, UniProt G7ZKZ7)
T2 sequence (G7ZKZ7 whole entry): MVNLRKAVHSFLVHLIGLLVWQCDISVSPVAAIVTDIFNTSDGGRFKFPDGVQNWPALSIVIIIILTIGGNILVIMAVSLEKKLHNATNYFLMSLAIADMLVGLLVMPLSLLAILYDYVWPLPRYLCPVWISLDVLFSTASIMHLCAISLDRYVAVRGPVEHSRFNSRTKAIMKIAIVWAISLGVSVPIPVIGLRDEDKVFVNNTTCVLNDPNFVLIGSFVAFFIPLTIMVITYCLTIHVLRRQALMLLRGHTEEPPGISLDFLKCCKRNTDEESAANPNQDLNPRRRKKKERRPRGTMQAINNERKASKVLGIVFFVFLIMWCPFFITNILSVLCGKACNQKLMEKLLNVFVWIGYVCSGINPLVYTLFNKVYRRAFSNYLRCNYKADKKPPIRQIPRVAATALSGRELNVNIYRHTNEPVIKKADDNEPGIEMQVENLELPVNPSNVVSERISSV

[7] = molecular target: T3, Alpha-2C adrenergic receptor (Rattus norvegicus, UniProt P22086)
T3 sequence (P22086 whole entry): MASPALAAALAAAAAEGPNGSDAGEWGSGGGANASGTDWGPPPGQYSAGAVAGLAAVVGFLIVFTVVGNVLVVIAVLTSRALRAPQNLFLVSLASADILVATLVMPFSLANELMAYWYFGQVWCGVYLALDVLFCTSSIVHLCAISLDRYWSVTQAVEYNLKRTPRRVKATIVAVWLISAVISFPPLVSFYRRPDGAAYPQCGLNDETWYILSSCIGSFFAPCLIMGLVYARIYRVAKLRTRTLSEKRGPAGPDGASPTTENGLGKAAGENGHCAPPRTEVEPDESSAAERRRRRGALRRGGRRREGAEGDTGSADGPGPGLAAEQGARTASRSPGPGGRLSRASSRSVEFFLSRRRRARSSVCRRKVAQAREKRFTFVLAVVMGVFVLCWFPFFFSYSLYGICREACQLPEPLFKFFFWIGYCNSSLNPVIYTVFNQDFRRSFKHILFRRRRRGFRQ

D(1A) dopamine receptor = D(1A) dopamine receptor (Rattus norvegicus, UniProt P18901)
Histamine H1 receptor = Histamine H1 receptor (Rattus norvegicus, UniProt P31390)
Sequence of Histamine H1 receptor (P31390 whole entry): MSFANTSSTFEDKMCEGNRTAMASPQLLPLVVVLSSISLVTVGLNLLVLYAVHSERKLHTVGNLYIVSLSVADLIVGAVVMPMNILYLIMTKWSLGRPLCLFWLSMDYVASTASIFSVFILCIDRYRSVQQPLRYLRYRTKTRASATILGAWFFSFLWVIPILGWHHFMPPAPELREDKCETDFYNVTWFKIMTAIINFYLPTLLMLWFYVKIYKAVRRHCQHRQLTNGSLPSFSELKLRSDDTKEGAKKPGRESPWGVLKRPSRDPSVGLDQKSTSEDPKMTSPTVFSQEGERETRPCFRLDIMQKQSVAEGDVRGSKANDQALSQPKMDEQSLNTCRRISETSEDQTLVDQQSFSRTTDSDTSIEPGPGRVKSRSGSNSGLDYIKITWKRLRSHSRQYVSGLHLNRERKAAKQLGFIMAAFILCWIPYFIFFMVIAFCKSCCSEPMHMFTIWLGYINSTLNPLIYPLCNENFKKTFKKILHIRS

Sequence of 5-hydroxytryptamine receptor 1B (P28564 whole entry): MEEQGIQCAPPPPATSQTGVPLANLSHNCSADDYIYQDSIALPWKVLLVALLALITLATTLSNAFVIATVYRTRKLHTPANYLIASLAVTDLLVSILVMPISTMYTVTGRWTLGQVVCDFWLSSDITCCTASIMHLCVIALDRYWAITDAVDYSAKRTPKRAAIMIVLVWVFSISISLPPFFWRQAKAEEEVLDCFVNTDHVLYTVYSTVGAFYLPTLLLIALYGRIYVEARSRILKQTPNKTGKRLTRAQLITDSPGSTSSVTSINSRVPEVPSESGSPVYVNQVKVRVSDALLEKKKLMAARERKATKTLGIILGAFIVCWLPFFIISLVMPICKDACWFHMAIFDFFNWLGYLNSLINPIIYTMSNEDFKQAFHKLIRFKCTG
Sequence of 5-hydroxytryptamine receptor 2A (P14842 whole entry): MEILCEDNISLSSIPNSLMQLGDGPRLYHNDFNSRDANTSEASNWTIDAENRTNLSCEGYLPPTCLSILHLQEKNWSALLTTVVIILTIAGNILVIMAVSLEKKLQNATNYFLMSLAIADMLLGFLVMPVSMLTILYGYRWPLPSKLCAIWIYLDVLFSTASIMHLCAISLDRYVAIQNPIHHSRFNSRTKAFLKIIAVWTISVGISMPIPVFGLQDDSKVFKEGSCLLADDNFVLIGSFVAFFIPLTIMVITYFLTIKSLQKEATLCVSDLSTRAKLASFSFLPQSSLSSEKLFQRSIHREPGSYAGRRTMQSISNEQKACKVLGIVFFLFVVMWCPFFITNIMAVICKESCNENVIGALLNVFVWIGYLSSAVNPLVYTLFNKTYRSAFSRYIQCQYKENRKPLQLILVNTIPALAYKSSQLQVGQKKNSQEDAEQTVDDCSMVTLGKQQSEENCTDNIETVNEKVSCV
Sequence of D(2) dopamine receptor (P61169 whole entry): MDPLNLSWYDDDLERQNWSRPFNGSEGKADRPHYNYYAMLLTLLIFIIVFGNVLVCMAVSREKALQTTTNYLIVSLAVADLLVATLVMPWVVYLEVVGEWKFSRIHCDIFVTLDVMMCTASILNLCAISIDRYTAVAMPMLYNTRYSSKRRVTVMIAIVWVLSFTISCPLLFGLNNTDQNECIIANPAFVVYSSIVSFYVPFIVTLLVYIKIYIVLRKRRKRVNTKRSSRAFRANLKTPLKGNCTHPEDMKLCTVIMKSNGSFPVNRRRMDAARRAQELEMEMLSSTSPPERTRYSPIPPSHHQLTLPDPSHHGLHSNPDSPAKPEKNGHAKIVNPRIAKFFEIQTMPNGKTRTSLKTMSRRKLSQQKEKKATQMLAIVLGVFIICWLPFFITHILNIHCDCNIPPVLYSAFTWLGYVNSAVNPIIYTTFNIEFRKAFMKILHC
Sequence of D(1A) dopamine receptor (P18901 whole entry): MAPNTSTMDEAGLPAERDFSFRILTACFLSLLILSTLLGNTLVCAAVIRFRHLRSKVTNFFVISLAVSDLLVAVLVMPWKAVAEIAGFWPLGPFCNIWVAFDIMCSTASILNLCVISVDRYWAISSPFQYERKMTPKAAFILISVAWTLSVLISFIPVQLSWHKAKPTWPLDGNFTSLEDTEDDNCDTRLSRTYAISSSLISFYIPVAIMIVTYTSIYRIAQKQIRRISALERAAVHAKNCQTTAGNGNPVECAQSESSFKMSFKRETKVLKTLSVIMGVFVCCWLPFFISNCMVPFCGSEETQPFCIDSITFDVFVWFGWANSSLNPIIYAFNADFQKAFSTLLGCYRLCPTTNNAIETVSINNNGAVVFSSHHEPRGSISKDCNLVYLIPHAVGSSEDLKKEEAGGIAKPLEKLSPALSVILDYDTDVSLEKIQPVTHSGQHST
Sequence of Sodium channel protein type 10 subunit alpha (Q62968 whole entry): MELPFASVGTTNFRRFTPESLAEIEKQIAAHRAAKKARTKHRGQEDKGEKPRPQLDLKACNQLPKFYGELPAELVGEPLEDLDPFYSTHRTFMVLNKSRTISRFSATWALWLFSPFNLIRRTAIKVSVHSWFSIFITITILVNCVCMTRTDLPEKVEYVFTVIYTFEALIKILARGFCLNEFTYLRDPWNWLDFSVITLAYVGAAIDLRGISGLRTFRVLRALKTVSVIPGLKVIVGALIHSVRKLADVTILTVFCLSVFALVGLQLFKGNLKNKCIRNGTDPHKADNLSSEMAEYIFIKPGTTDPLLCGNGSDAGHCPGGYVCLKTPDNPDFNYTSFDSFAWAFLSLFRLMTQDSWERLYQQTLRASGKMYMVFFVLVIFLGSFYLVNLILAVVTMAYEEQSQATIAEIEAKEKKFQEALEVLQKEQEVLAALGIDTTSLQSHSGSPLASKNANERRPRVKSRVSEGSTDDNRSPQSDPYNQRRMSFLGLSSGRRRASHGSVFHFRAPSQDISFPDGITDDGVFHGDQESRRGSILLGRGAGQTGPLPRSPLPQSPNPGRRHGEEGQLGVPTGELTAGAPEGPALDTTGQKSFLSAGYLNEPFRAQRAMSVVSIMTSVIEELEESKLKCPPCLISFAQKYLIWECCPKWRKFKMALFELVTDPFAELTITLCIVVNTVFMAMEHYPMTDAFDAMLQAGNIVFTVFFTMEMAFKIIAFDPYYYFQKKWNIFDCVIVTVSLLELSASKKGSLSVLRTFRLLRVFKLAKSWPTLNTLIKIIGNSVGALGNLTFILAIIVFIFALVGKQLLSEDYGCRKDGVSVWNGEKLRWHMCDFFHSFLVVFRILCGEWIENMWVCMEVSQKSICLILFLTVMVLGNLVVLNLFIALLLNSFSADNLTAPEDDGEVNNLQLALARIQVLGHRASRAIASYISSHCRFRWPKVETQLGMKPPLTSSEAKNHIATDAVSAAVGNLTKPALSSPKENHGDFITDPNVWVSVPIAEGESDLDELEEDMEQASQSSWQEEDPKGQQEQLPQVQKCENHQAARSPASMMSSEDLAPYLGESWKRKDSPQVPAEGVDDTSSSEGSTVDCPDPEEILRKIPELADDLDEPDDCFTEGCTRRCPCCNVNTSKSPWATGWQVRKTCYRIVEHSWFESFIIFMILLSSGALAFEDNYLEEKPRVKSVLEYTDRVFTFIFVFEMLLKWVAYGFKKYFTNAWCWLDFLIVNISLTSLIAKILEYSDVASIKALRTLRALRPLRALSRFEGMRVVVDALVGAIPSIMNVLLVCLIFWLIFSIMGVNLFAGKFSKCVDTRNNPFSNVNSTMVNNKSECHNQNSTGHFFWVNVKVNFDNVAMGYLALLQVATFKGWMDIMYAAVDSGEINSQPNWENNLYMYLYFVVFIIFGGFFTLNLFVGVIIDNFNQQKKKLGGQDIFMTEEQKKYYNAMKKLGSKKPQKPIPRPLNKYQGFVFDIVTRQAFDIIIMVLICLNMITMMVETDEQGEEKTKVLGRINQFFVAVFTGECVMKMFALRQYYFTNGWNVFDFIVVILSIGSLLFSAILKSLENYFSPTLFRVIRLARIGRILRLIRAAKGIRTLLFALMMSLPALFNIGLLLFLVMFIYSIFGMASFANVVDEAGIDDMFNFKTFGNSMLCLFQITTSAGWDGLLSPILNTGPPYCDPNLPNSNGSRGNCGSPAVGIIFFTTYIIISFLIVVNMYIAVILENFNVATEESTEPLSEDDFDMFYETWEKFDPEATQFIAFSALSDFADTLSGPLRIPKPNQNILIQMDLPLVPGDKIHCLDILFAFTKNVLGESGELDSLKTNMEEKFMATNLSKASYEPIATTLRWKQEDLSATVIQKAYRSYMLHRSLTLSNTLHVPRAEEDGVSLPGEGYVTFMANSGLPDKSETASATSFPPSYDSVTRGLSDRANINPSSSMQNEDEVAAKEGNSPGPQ
Sequence of 5-hydroxytryptamine 1D receptor (Q8MI13 whole entry): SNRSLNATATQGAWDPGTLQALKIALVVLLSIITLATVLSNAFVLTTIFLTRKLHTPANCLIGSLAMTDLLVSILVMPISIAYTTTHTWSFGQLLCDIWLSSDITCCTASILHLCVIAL

CN(C)CCON=C(C=Cc1ccc(O)cc1)c1ccccc1F [NSC_6438382]
Ki [1]: 0.0058 µM
Ki (D(2) dopamine receptor): > 10 µM
Ki [2]: > 10 µM
Ki [3]: > 10 µM
Ki [4]: 3.4 µM
Ki [5]: > 10 µM
Ki [6]: 0.12 µM
Ki [7]: 1 µM
Ki (D(1A) dopamine receptor): 9 µM
Ki (Histamine H1 receptor): 5 µM
